Results as given in patent US9695178B2, “6-(2-pyridyl)-7,8-dihydro-5H-pyrido[4,3-D]pyrimidine analogs as hedgehog pathway signaling inhibitors and therapeutic applications thereof” (Suzhou Yunxuan Yiyao Keji Youxian Gongsi, priority 2013, dated 2017).
pIC50: −log10 of the molar value.

What follows are molecules tested against Smo (Homo sapiens, UniProt Q99835) (assay: Bodipy-Cyclopamine Binding Assay (confirmation assay), Hek293-SMO cells). Conditions: not given.
Sequence of Smo (Q99835 28-787): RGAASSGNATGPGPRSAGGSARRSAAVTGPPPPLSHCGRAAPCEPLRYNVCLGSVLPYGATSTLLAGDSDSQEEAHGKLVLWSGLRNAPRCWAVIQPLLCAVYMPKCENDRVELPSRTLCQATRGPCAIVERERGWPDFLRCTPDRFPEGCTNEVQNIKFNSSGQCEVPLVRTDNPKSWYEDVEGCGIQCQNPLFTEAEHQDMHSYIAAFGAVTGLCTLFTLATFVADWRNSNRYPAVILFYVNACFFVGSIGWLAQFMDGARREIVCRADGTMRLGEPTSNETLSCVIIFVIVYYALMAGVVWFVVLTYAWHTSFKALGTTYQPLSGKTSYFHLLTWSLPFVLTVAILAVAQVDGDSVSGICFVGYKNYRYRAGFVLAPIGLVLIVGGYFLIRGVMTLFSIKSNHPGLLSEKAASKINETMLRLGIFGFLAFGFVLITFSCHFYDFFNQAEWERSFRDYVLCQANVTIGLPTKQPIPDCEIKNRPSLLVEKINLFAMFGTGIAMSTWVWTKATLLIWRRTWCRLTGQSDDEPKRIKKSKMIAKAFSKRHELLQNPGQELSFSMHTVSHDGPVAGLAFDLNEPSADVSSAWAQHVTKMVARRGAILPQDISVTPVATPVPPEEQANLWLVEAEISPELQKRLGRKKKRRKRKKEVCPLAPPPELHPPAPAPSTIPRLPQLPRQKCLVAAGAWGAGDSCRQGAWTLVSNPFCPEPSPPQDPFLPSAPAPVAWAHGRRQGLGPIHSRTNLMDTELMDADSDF

| Structure (SMILES) | pIC50 |
| --- | --- |
| Cc1cnc(-c2cc(N3CCc4nc(N)ncc4C3)ncc2Cl)c(C)c1 [Compound A-89, 6-(5′-chloro-3,5-dimethyl-2,4′-bipyridin-2′-yl)-5,6,7,8-tetrahydropyrido-[4,3-d]pyrimidin-2-amine] | < 6.00 |
| Cc1cnc(-c2cc(N3Cc4cnc(N5CC(C)NC(C)C5)nc4C(C)C3)ncc2Cl)c(C)c1 (stereo not shown) [Compound A-76, 6-(5′-chloro-3,5-dimethyl-2,4′-bipyridin-2′-yl)-2-(3,5-dimethyl-piperazin-1-yl)-8-methyl-5,6,7,8-tetrahydro-pyrido-[4,3-d]pyrimidine] | 6.83 |
| CSc1ncc2c(n1)C(C)CN(c1cc(-c3ncc(C)cc3C)c(Cl)cn1)C2 (stereo not shown) [Compound A-74, 6-(5′-chloro-3,5-dimethyl-2,4′-bipyridin-2′-yl)-8-methyl-2-(methylthio)-5,6,7,8-tetrahydro-pyrido-[4,3-d]-pyrimidine] | 6.24 |
| FC(F)(F)c1ccc(-c2cc(N3CCc4nc(NC5CC5)ncc4C3)ncc2Cl)nc1 [Compound A-114, 6-(5′-chloro-5-(trifluoro-methyl)-2,4′-bipyridin-2′-yl)-N-cyclopropyl-5,6,7,8-tetrahydro-pyrido-[4,3-d]pyrimidin-2-amine] | < 6.00 |
| Cc1cnc(-c2cc(N3CCn4cc(C(=O)N5CCOCC5)nc4C3)ncc2Cl)c(C)c1 [Compound A-5, (7-(5′-chloro-3,5-dimethyl-2,4′-bipyridin-2′-yl)-5,6,7,8-tetrahydro-imidazo-[1,2-a]pyrazin-2-yl)(morpholino) methanone] | 5.94 |

The next lines start with the values.

| pIC50 | Structure (SMILES) |
| --- | --- |
| 6.98 | Cc1cnc(-c2cc(N3CCc4nc(NC(=O)C(C)(C)C)ncc4C3)ncc2Cl)c(C)c1 [Compound A-93, N-(6-(5′-chloro-3,5-dimethyl-2,4′-bipyridin-2′-yl)-5,6,7,8-tetrahydropyrido-[4,3-d]pyrimidin-2-yl)pivalamide] |
| 7.01 | Cc1cnc(-c2cc(N3CCc4nc(OC(C)C)ncc4C3)ncc2Cl)c(C)c1 [Compound A-69, 6-(5′-chloro-3,5-dimethyl-2,4′-bipyridin-2′-yl)-2-isopropoxy-5,6,7,8-tetrahydro-pyrido-[4,3-d]pyrim-idine] |
| 7.06 | Cc1cnc(-c2cc(N3CCc4nc(N5CCC(O)CC5)sc4C3)ncc2Cl)c(C)c1 [Compound A-32, 1-(5-(5′-chloro-3,5-dimethyl-2,4′-bipyridin-2′-yl)-4,5,6,7-tetrahydro-thiazolo-[5,4-c]pyridin-2-yl)piperidin-4-ol] |
| 6.93 | Cc1cnc(-c2cc(N3CCc4nc(NC5CCCC5)ncc4C3)ncc2Cl)c(C)c1 [Compound A-70, 6-(5′-chloro-3,5-dimethyl-2,4′-bipyridin-2′-yl)-N-cyclopentyl-5,6,7,8-tetrahydro-pyrido-[4,3-d]pyrim-idin-2-amine] |

Same assay, conditions: Smo IC50 (nM), confirmation assay; competition with 100 nM bodipy-cyclopamine, Hek293-SMO cells

| IC50 [nM] | Structure (SMILES) |
| --- | --- |
| > 1000 | CCNC(=O)c1cn2c(n1)CN(c1cc(-c3ncc(C)cc3C)c(Cl)cn1)CC2 [Compound A-9, 7-(5′-chloro-3,5-dimethyl-2,4′-bipyridin-2′-yl)-N-ethyl-5,6,7,8-tetrahydro-imidazo-[1,2-a]pyrazine-2-carboxamide] |
